Reference: PMC3827994, “Novel preclinical models of topical PrEP pharmacodynamics provide rationale for combination of drugs with complementary properties” (Retrovirology, 2013)
Counter-ions that a name gives are not always drawn.

Key:
HIV-1Ba-L [1] = assay: Intracellular drug retention: JT-CCR5 cells exposed to drug 24 h, washed with medium or 10% seminal plasma, then HIV-1Ba-L challenge; format: cell-based; settings: for protection of washed cells at the highest concentrations tested: 10 and 100 μM, cells washed with medium or SP; for antiviral activity after washing cells with medium or SP prior to challenge: JT-CCR5, 24 h drug exposure, TDF at >= 0.1 μM
Procedure: (§1) JT-CCR5 T cells in 24-well plates (1×10^6 cells/well) were exposed to varying concentrations of drugs diluted in complete medium for 24 h. The cells were then washed with 10 mL of medium, medium containing 10% human seminal plasma (SP), or not washed and then washed cells were resuspended in complete medium prior to transfer to round-bottomed 96-well plates and exposed to 10^3 TCID50 (50% tissue culture infective dose) HIV-1Ba-L for 2 h. Plates were centrifuged at 500 g for 5 min and supernatants were removed prior to each of 3 washing steps with 200 μL of medium. Cells were subsequently cultured in 200 μL complete medium and HIV replication was assessed 6 d post-infection by measuring p24 antigen by ELISA [34].

HIV-1Ba-L [2] = assay: Co-culture model: drug-exposed human ectocervical explants washed, minced, co-cultured with JT-CCR5 cells, HIV-1Ba-L challenge; format: cell-based
Procedure: (§2) Cervical tissue was collected from pre-menopausal women undergoing therapeutic hysterectomies at the Albert Einstein–Montefiore Weiler Hospital (Bronx, NY, USA) under an IRB exempt protocol. Ectocervical tissue was cut into explants of approximately 3×3×3 mm prior to 24 h exposure to panel of unformulated drugs in 24-well plates. Extracellular free drug was removed by immersing explants in phosphate buffered saline (PBS) containing Ca^2+ before mincing explants into fragments smaller than 1 mm, which were resuspended in 200 μL complete medium and co-cultured with JT-CCR5 cells (1×10^5 cells/well) in triplicate wells of round-bottomed 96-well plates. Co-cultures were incubated at 37°C for 72 h to allow released drug to be transferred from the tissue to T cells prior to challenge with HIV-1Ba-L (approximately 10^3 TCID50). The inoculum was removed and co-cultured tissue and cells washed thrice with medium. HIV replication was assessed by measuring p24 levels by ELISA (Figure 2a).

HIV-1Ba-L [3] = assay: JT-CCR5 cells challenged with HIV-1Ba-L in the presence of drug (p24 ELISA); format: cell-based
Procedure: as §1

[4] = pig, in vivo
Procedure: A 14-day IQP-0528 IVR biodistribution study using pigtail macaque monkeys was performed following protocols approved by the CDC Institutional Animal Care and Use Committee according to the Guide for the Care and Use of Laboratory Animals as previously described [36]. Briefly, animals were anesthetized with ketamine (3-10 mg/kg) prior to all collection procedures. A total of six macaques were used with two animals receiving placebo IVR and four animals receiving IQP-0528 (10% w/w) IVR. A pediatric speculum and forceps were used to insert IVRs in the posterior vagina proximal to the ectocervix on day 0 and left in place for 14 days. Tissue samples were collected with biopsy forceps (Miltex Townsend # 30–1445) near the vaginal introitus (distal to the ring) and the ectocervix (proximal to the ring) and shipped at 4°C to the Herold laboratory overnight. CVL samples were obtained by washing the vaginal vault with 5 mL normal saline; CVL samples were divided into aliquots, shipped and stored at -80°C.
IQP-0528 in biological samples was extracted and analyzed using LC-MS/MS at the Center for Human Toxicology (Utah). The lower limit of quantification (LLOQ) for this assay was 1 ng/mL of matrix. To convert weight/weight concentrations of IQP-0528 (nanograms IQP-0528 per milligram of vaginal fluid or tissue) to molarity (μM), vaginal fluid and tissue densities of 1.0 g/mL were assumed.

HIV-1Ba-L [5] = assay: NHP cervical biopsies co-cultured with PHA-activated human PBMC, HIV-1Ba-L challenge (p24 ELISA); format: cell-based
Procedure: as §2
Proximal and distal biopsies were collected and placed in 200 μL of complete medium and shipped to the Herold laboratory at 4°C. Biopsies were minced without washing and co-cultured with activated human PBMC in the presence of culture medium used during transport. Challenge and assessment of HIV replication were performed as described for human cervical explant tissue (Figure 2a).

TZM-bl cells = assay: In vitro activity of IQP-0528 in TZM-bl cells; format: cell-based; settings: not shown
HIV-1Ba-L [6] = assay: Antiviral activity of macaque CVL in TZM-bl cells challenged with HIV-1Ba-L (luciferase); format: cell-based; settings: CVL diluted 1:10 and 1:100, Days 7 and 14 post IVR insertion
Procedure: TZM-bl cells were plated at 3x10^4/well and allowed to adhere overnight before exposure to 10^3 TCID50 HIV-1Ba-L in the presence of CVL diluted 1:10 and 1:100 in complete DMEM in triplicate wells. Virus and drugs were left in culture for 48 h at 37°C and then removed by washing once with 200 μl PBS. Cells were lysed in 100 μl luciferase cell culture lysis reagent (Promega) and stored at -80°C until assessed for luciferase activity using luciferase assay buffer (Promega). Alternatively, TZM-bl cells were plated at 5x10^3/well in polyester transwell™ inserts with 1.0 μm pore size (Corning) and exposed basolaterally to CVL diluted 1:20 in complete DMEM overnight before apical challenge with the CCR5-tropic subtype C HIV isolate 97USNG30 (0, 10 and 100 TCID50). Wells with luciferase activity above background average + 2 standard deviations (cells exposed to CVL but no virus) were considered positive. To avoid contamination, frozen CVL was Gamma-irradiated on dry ice (1KGy) prior to use.

HIV-1Ba-L [7] = assay: Parallel antiviral experiments with MVC in human PBMCs; format: cell-based; settings: PHA-activated PBMCs; data not shown
HIV = system: HIV; set-up: method as in PMID 16251317; settings: drug present throughout the experiment ref 25; cited from earlier work
[8] = Human immunodeficiency virus 1; drug concentration during 24 h explant exposure; means ± SEM; read-out: Co-culture JT-CCR5 & explant tissue IC50
[9] = Human immunodeficiency virus 1; drug concentration during 24 h explant exposure; means ± SEM; read-out: Co-culture JT-CCR5 & explant tissue IC90
[10] = explant treated ex vivo, washed, co-cultured with JT-CCR5
[11] = Human immunodeficiency virus 1, 144 h; challenge in the presence of drug; means ± SEM; read-out: JT-CCR5 Infection IC50
[12] = Human immunodeficiency virus 1, 144 h; challenge in the presence of drug; means ± SEM; read-out: JT-CCR5 Infection IC90
[13] = macaques with 10% w/w IQP-0528 IVR, co-culture with human PBMC

Cc1cc(C)c(Nc2ccnc(Nc3ccc(C#N)cc3)n2)c(C)c1 [DPV, Dapivirine]
HIV inhibition (HIV-1Ba-L [1]; 1 μM, cells washed with SP prior to HIV challenge): failed to inhibit HIV infection | inhibition at 1 µM (HIV-1Ba-L [1]; Human immunodeficiency virus 1, 1 μM, cells washed with medium alone, mean ± SEM, read-out: protection (HIV inhibition)): 73.9 ± 13.8% | IC50 (HIV-1Ba-L [2]; [8]): 400 ± 200 nM | IC90 (HIV-1Ba-L [2]; [9]): 1100 ± 300 nM | protection of co-cultured T cells by pretreated explant tissue (HIV-1Ba-L [2]; [10]): significant protection | IC50 (HIV-1Ba-L [3]; [11]): 10 ± 10 nM | IC90 (HIV-1Ba-L [3]; [12]): 30 ± 20 nM

Cc1cc(C)cc(C(=O)c2c(C(C)C)c(=O)[nH]c(=O)n2CC2CC2)c1 [IQP-0528]
protection of washed cells at the highest concentrations tested (HIV-1Ba-L [1]): neither IQP-0528 or MVC completely protected the cells from infection | IQP-0528 concentration in CVL, D7, Mean ± SEM [4]: 1360 ± 249 µg/mL | IQP-0528 concentration in CVL, D14, Mean ± SEM [4]: 940 ± 250 µg/mL | IQP-0528 concentration in cervical tissue, Distal D7, Mean ± SEM [4]: 0.85 ± 0.23 ng/mg of tissue | IQP-0528 concentration in cervical tissue, Distal D14, Mean ± SEM [4]: 14.65 ± 6.35 ng/mg of tissue | IQP-0528 concentration in cervical tissue, Proximal D7, Mean ± SEM [4]: 3.36 ± 1.36 ng/mg of tissue | IQP-0528 concentration in cervical tissue, Proximal D14, Mean ± SEM [4]: 28.08 ± 5.39 ng/mg of tissue | IC50 (HIV-1Ba-L [2]; drug concentration during 24 h explant exposure; means ± SEM; read-out: Co-culture JT-CCR5 & explant tissue IC50): 2900 ± 700 nM | IC90 (HIV-1Ba-L [2]; drug concentration during 24 h explant exposure; means ± SEM; read-out: Co-culture JT-CCR5 & explant tissue IC90): 10100 ± 700 nM | protection of co-cultured T cells by pretreated explant tissue (HIV-1Ba-L [2]; [10]): significant protection | protection in co-culture, fresh tissue vs tissue stored at -80°C (HIV-1Ba-L [2]; tissue fresh or frozen 24 h or 7 days after drug treatment): protective under all of these conditions | viral inhibition, distal biopsies, day 7 (HIV-1Ba-L [5]; [13]): 42.3% | viral inhibition, distal biopsies, day 14 (HIV-1Ba-L [5]; [13]): 59.2% | viral inhibition, proximal biopsies, day 7 (HIV-1Ba-L [5]; [13]): 53.0% | viral inhibition, proximal biopsies, day 14 (HIV-1Ba-L [5]; [13]): 71.7% | viral inhibition, biopsies of ring-treated macaques (range) (HIV-1Ba-L [5]; proximal and distal biopsies, days 7 and 14): 42-72% | IC50 (HIV-1Ba-L [3]; challenge in the presence of drug; means ± SEM; read-out: JT-CCR5 Infection IC50): 190 ± 70 nM | IC90 (HIV-1Ba-L [3]; challenge in the presence of drug; means ± SEM; read-out: JT-CCR5 Infection IC90): 430 ± 160 nM | in vitro IC90 in TZM-bl cells (TZM-bl cells): 2.7 ng/mL | protection of TZM-bl cells challenged in the presence of CVL (HIV-1Ba-L [6]): significantly protected from infection

CC(C)OC(=O)OCOP(=O)(CO[C@H](C)Cn1cnc2c(N)ncnc21)OCOC(=O)OC(C)C [TDF, Tenofovir disoproxil fumarate]
antiviral activity after washing cells with medium or SP prior to challenge (HIV-1Ba-L [1]): retained its antiviral activity | IC50 (HIV-1Ba-L [2]; [8]): > 10000 nM | IC90 (HIV-1Ba-L [2]; [9]): > 10000 nM | protection of co-cultured T cells by pretreated explant tissue (HIV-1Ba-L [2]; [10]): not protected from viral infection | IC50 (HIV-1Ba-L [3]; [11]): 40 ± 10 nM | IC90 (HIV-1Ba-L [3]; [12]): 130 ± 20 nM

Maraviroc [MVC]
protection of washed cells at the highest concentrations tested (HIV-1Ba-L [1]): neither IQP-0528 or MVC completely protected the cells from infection | antiviral activity after washing cells with medium or SP prior to challenge (HIV-1Ba-L [1]): significantly reduced | antiviral activity in human PBMCs compared to JT-CCR5 cells (HIV-1Ba-L [7]): no difference in the antiviral activity | protection of co-cultured T cells by pretreated explant tissue (HIV-1Ba-L [2]; [10]): failed to protect co-cultured T cells | IC50 (HIV-1Ba-L [2]; read-out: Co-culture JT-CCR5 & explant tissue IC50; drug concentration during 24 h explant exposure; means ± SEM): > 100000 nM | IC90 (HIV-1Ba-L [2]; read-out: Co-culture JT-CCR5 & explant tissue IC90; drug concentration during 24 h explant exposure; means ± SEM): > 100000 nM | antiviral activity (HIV): low nanomolar range | antiviral activity (HIV-1Ba-L [3]; cells washed 2 h after viral inoculation, drug not re-added): only active in the low μM range | IC50 (HIV-1Ba-L [3]; read-out: JT-CCR5 Infection IC50; challenge in the presence of drug; means ± SEM): 1980 ± 850 nM | IC90 (HIV-1Ba-L [3]; read-out: JT-CCR5 Infection IC90; challenge in the presence of drug; means ± SEM): 54500 ± 13800 nM
